Laboratory results published in patent EP1016409B1, “FREEZE DRIED COMPOSITION COMPRISING GLYCOSPHINGOLIPIDS” (KIRIN BEER KABUSHIKI KAISHA, priority 1997, dated 1998).

Legend:
Type in all cases: physicochemical
[1] = Addition effects of sodium deoxycholate and histidine in the absence of a sugar; settings: lyophilized, KRN7000 200 µg/ml, Polysorbate 20 0.5%, 1%, no sugar, 50°C
Procedure: Addition effects of sodium deoxycholate and histidine in the absence of a sugar as the excipient was examined.
(§1) First, Polysorbate 20 was dissolved in distilled water in a concentration of 0.5%, and histidine or sodium deoxycholate in a concentration of 1.0%. Next, 20 mg of the active component (KRN7000) was weighed and stirred in 100 ml of the solvents in a heated bath to 80°C for 20 minutes in order to form a solution. After cooling with running water, the mixture was filtered through a 0.22 µm filter, and transparent colorless glass vials having a volume of 5 ml were charged with a 1 ml portion of each of a variety of solutions thus obtained and subjected to lyophilization. Lyophilization was carried out under the condition of preliminary freezing at -40°C for 2 hours and drying at -20°C for 24 hours, 10°C for 12 hours, and finally at 25°C for 5 hours to give the lyophilized product. The degree of vacuum was set at 0.1 Torr or less during drying step.
After the lyophilization step, the lyophilized composition thus obtained was stored at 50°C. After storage for 3 days or 2 weeks, the lyophilized composition was reconstituted in 1 ml of distilled water for injection, left standing for 30 minutes, and solubility was judged when the foams generated on reconstitution disappeared. […]

[2] = Selection of a solvent for the active component: solubility judged by naked eye
Procedure: First, […] of the active component (KRN7000) was weighed and stirred in 100 ml of a variety of solvents (Table 3) in a heated bath to 80°C for 20 minutes in order to form a solution having a concentration of 10 µg/ml. With respect to the solvents which were judged to have successfully dissolved 10 µg/ml of the active component, dissolution was further tried in the same manner as above in order to form a solution having a concentration of 100 µg/ml. With respect to the solvents which were judged to have successfully dissolved 100 µg/ml of the active component, dissolution was further tried in the same manner as above in order to form a solution having a concentration of 200 µg/ml. After cooling with running water, the solubility of the component was judged.
The solubility of the component was judged by the test described below. First, transparent colorless glass vials having a volume of 5 ml were charged with about 1.5 ml portion of each sample and sealed up. The vial was cleaned outside and placed beneath the white light source in a darkroom for observation with naked eye at the position of a luminous intensity of about 5,000 lux. When the sample was clear with no precipitates, it was judged that the active component was dissolved.

[3] = Lyophilized preparations with Polysorbate 20 alone: re-solubility immediately after lyophilization; settings: KRN7000 200 µg/ml, no excipient, reconstituted in 1 ml distilled water for injection
Procedure: as §1, with “Next,” for “First, Polysorbate 20 was dissolved in distilled water in a concentration of 0.5%, and histidine or sodium deoxycholate in a concentration of 1.0%. Next,”, “Polysorbate solutions having a variety of concentrations” for “solvents”, “solutions” for “solutions thus obtained”, “lyophilizaiton.” for “lyophilization.”
After the lyophilization step, the lyophilized composition was reconstituted in 1 ml of distilled water for injection, left standing for 30 minutes, and solubility was judged when the foams generated on reconstituiton disappeared.
(§2) The solubility was judged by cleaning the outside of the vial and placing it beneath the white light source in a darkroom for observation with naked eye at the position of a luminous intensity of about 5,000 lux. When the sample was clear with no precipitates, it was judged that the active component was dissolved.

[4] = Optimal amount of Polysorbate 20: solubility of the solution after storage, by naked eye; design: key: + not dissolved (or deposited); - dissolved; settings: KRN7000 200 µg/ml, 25°C
Procedure: Next, 20 mg of the active component (KRN7000) was weighed and stirred in 100 ml of the Polysorbate solutions having a variety of concentrations in a heated bath at 80°C for 20 minutes in order to form a solution. After cooling with running water, the mixture was filtered through a 0.22 µm filter, and transparent colorless glass vials having a volume of 5 ml were charged with a 2 ml portion of each of a variety of solutions and sealed up.
These samples were stored at 25°C for 2 weeks, and judged of their solubility. The samples judged in solution were further stored, and judged again of their solubility after 1 month.
as §2, with “in the” for “in a”

SMILES: CCCCCCCCCCCCCCCCCCCCCCCCCC(=O)N[C@@H](CO[C@H]1O[C@H](CO)[C@H](O)[C@H](O)[C@H]1O)[C@H](O)[C@H](O)CCCCCCCCCCCCCC [KRN7000, (2S,3S,4R)-1-(α-D-galactopyranosyloxy)-2-hexacosanoylamino-3,4-octadecanediol]
- Re-solubility after storage (by naked eye) ([1]; Histidine, 2 weeks): + (+ not dissolved (or deposited))
- Re-solubility after storage (by naked eye) ([1]; Sodium deoxycholate, 3 days): + (+ not dissolved (or deposited))
- Judgment of solubility (by naked eye) ([2]; solvent 0.5% Cremophor, KRN7000 10 µg/ml): + (+ not dissolved (or deposited))
- Judgment of solubility (by naked eye) ([2]; solvent 0.5% HCO 50, KRN7000 10 µg/ml): + (+ not dissolved (or deposited))
- Judgment of solubility (by naked eye) ([2]; solvent 0.5% HCO 60, KRN7000 10 µg/ml): + (+ not dissolved (or deposited))
- Judgment of solubility (by naked eye) ([2]; solvent 0.5% Polyoxamer 188, KRN7000 10 µg/ml): + (+ not dissolved (or deposited))
- Judgment of solubility (by naked eye) ([2]; solvent 0.5% Polysorbate 20, KRN7000 10 µg/ml): - (- dissolved)
- Judgment of solubility (by naked eye) ([2]; solvent 0.5% Polysorbate 20, KRN7000 100 µg/ml): - (- dissolved)
- Judgment of solubility (by naked eye) ([2]; solvent 0.5% Polysorbate 20, KRN7000 200 µg/ml): - (- dissolved)
- Judgment of solubility (by naked eye) ([2]; solvent 0.5% Polysorbate 80, KRN7000 10 µg/ml): - (- dissolved)
- Judgment of solubility (by naked eye) ([2]; solvent 0.5% Polysorbate 80, KRN7000 100 µg/ml): + (+ not dissolved (or deposited))
- Judgment of solubility (by naked eye) ([2]; solvent 1N HCl, KRN7000 10 µg/ml): + (+ not dissolved (or deposited))
- Judgment of solubility (by naked eye) ([2]; solvent 1N NaOH, KRN7000 10 µg/ml): + (+ not dissolved (or deposited))
- Judgment of solubility (by naked eye) ([2]; solvent Distilled water, KRN7000 10 µg/ml): + (+ not dissolved (or deposited))
- Judgment of solubility (by naked eye) ([2]; solvent Ethanol, KRN7000 10 µg/ml): - (- dissolved)
- Judgment of solubility (by naked eye) ([2]; solvent Ethanol, KRN7000 100 µg/ml): - (- dissolved)
- Judgment of solubility (by naked eye) ([2]; solvent Ethanol, KRN7000 200 µg/ml): - (- dissolved)
- Judgment of solubility (by naked eye) ([2]; solvent Glycerol, KRN7000 10 µg/ml): - (- dissolved)
- Judgment of solubility (by naked eye) ([2]; solvent Glycerol, KRN7000 100 µg/ml): + (+ not dissolved (or deposited))
- Judgment of solubility (by naked eye) ([2]; solvent Macrogol 400, KRN7000 10 µg/ml): - (- dissolved)
- Judgment of solubility (by naked eye) ([2]; solvent Macrogol 400, KRN7000 100 µg/ml): + (+ not dissolved (or deposited))
- Judgment of solubility (by naked eye) ([2]; solvent Propylene glycol, KRN7000 10 µg/ml): - (- dissolved)
- Judgment of solubility (by naked eye) ([2]; solvent Propylene glycol, KRN7000 100 µg/ml): + (+ not dissolved (or deposited))
- Re-solubility immediately after lyophilization (by naked eye) ([3]; Polysorbate 20 0.5%): + (+ not dissolved (or deposited))
- Re-solubility immediately after lyophilization (by naked eye) ([3]; Polysorbate 20 1.0%): + (+ not dissolved (or deposited))
- Re-solubility immediately after lyophilization (by naked eye) ([3]; Polysorbate 20 2.0%): + (+ not dissolved (or deposited))
- Variation with the passage of time after storage (by naked eye) ([4]; Polysorbate 20 0.1%, 2 weeks): +
- Variation with the passage of time after storage (by naked eye) ([4]; Polysorbate 20 0.2%, 2 weeks): +
- Variation with the passage of time after storage (by naked eye) ([4]; Polysorbate 20 0.3%, 1 month): +
- Variation with the passage of time after storage (by naked eye) ([4]; Polysorbate 20 0.3%, 2 weeks): -
- Variation with the passage of time after storage (by naked eye) ([4]; Polysorbate 20 0.5%, 1 month): +
- Variation with the passage of time after storage (by naked eye) ([4]; Polysorbate 20 0.5%, 2 weeks): -
- Variation with the passage of time after storage (by naked eye) ([4]; Polysorbate 20 1.0%, 1 month): +
- Variation with the passage of time after storage (by naked eye) ([4]; Polysorbate 20 1.0%, 2 weeks): -
- Variation with the passage of time after storage (by naked eye) ([4]; Polysorbate 20 2.0%, 1 month): +
- Variation with the passage of time after storage (by naked eye) ([4]; Polysorbate 20 2.0%, 2 weeks): -
- Variation with the passage of time after storage (by naked eye) ([4]; Polysorbate 20 4.0%, 1 month): +
- Variation with the passage of time after storage (by naked eye) ([4]; Polysorbate 20 4.0%, 2 weeks): -
- Variation with the passage of time after storage (by naked eye) ([4]; Polysorbate 20 8.0%, 1 month): +
- Variation with the passage of time after storage (by naked eye) ([4]; Polysorbate 20 8.0%, 2 weeks): -
